Values quoted from earlier work as cited in patent US20120219597A1, “PHARMACEUTICAL FORMULATIONS FOR INDIBULIN” (ZIOPHARM Oncology, Inc., priority 2009, published 2012).

Key:
[1] = pure indibulin
[2] = in water, methanol, ethanol or 2-propanol

## O=C(Nc1ccncc1)C(=O)c1cn(Cc2ccc(Cl)cc2)c2ccccc12 [indibulin]
[1]
  bioavailability: low
[2]
  solubility: practically insoluble
